These are literature values, as cited in patent publication US9861605B2, “Enriched injectable emulsion containing selected fatty acid triglycerides” (STABLE SOLUTIONS LLC, priority 2011, dated 2018).

For this data set the following is noted: against water.

In the case of `CCCCCCCC(=O)O` [caprylic acid], the interfacial tension result was “approximately 8.2 dyne/cm”.
With `CCCCCCCC/C=C\CCCCCCCC(=O)O` [oleic acid], the interfacial tension is listed as 15.6 dyne/cm.
